# Legend:
# Format in all cases: biochemical
# normal plasma pool [1] = assay: Prothrombin time (PT) with RecombiPlastin
# [2] = tested on: thrombin generation in normal plasma pool; assay: Thrombin generation test (TGT Fluoroskan), extrinsic pathway, TF 1 pM / PL 4 μM
# Experimental: The stock solution of rivaroxaban at 436 μg/mL is diluted in 5% DMSO in order to obtain intermediate concentrations which, added to the NPP (Normal Pool Plasma), give final concentrations of rivaroxaban in μg per mL of plasma.
# (§1) The thrombin generation test consists of activating coagulation ex vivo either using a mixture of tissue factor and phospholipids, or using cephalin and then measuring the concentration of thrombin generated over time.
# (§2) The reaction is started by the addition of 20 μL of Fluca-kit (substrate+CaCl2) which constitutes the start of the measurement of the appearance of thrombin. The appearance of fluorescence is measured on a fluorometer of the Fluoroskan Ascent type (ThermoLabsystems) at an excitation wavelength of 390 nm and emission wavelength of 460 nm. The thrombinograms (curves representing the intensity of fluorescence as a function of time) are then analyzed using the Thrombinoscope™ software which converts the fluorescence value to nM of thrombin by comparative calculation.
# [3] = tested on: thrombin generation in normal plasma; assay: Thrombin generation (TGT) induced by cephalin
# Experimental: A series of similar experiments is carried out by inducing the initiation of coagulation by cephalin. The series of preliminary experiments mimics the extrinsic activation of coagulation. This second series of experiments mimics the intrinsic activation of coagulation. The presence of FXa in an increasing quantity in normal plasma (●) […] the speed of appearance of thrombin without changing the total quantity of thrombin generated (FIG. 7, Table II). The speed of appearance of the thrombin is correlated with the dose of FXa added. Shorter times to peak are obtained in the presence of FXa.
# The effect of FXa following the induction of thrombin generation by cephalin is then measured in the presence of Rivaroxaban at 0.35 μg/ml (FIG. 8, Table II). […] The presence of FXa in an increasing concentration makes it possible to increase the quantity of thrombin generated in a dose-dependent manner, as well as to reduce the time to peak. A maximum quantity of thrombin is obtained in the case of a concentration comprised between 0.125 and 0.25 μg/ml.
# [4] = tested on: thrombin generation in normal plasma pool; assay: Thrombin generation test (CAT), intrinsic pathway, cephalin alone
# Experimental: as §1, §2
# The reagents, the automated equipment and the experimental protocol are identical to those described in Example 1.
# [5] = tested on: thrombin generation in normal plasma; assay: Thrombin generation (TGT) induced by tissue factor (0.5 pM)
# Experimental: The effect of an overdose of FXa in normal plasma was assessed by measuring thrombin generation (TGT) following induction by tissue factor (0.5 pM) (FIG. 5, Table I). Doses of 0.03 μg/ml to 0.5 μg/ml of FXa were compared. The quantity of thrombin generated depends on the dose of FXa added.
# A similar experiment was repeated in the presence of a therapeutic dose of 0.35 μg/ml of Rivaroxaban (FIG. 6, Table I). […] On the other hand, a correction of thrombin generation is obtained starting from 0.06 μg/ml (▪) up to a dose of 0.25 μg/ml (▴).
# [6] = tested on: thrombin generation in normal plasma pool; assay: Thrombin generation test (TGT Fluoroskan), extrinsic pathway, TF 5 pM / PL 4 μM; details: rivaroxaban 0.35 μg/mL in PNP, no FXa
# Experimental: as §1, §2
# The reagents, the automaton and the experimental protocol are identical to those described in Example 1. […]
# normal plasma pool [7] = assay: aPTT with PTT-A; details: rivaroxaban 0.35 μg/mL in PNP, no FXa
# [8] = rivaroxaban 0.5 μg/mL in PNP, no FX (Table 2)
# [9] = rivaroxaban 0.5 μg/ml in PNP, no FX (Table 1)
# [10] = Unicalibrator + 0.35 μg/ml Rivaroxaban, no hFXa
# [11] = rivaroxaban 0.35 μg/ml in PNP, no FX
compound,measurement,setting,value
O=C(NC[C@H]1CN(c2ccc(N3CCOCC3=O)cc2)C(=O)O1)c1ccc(Cl)s1 [rivaroxaban],PT with RecombiPlastin 2G (ISI: 1.0),"normal plasma pool [1]; rivaroxaban 0.35 μg/mL in PNP, no FXa",26 s
same,PT (RecombiPlastin ISI: 1.0),"normal plasma pool [1]; rivaroxaban 0.5 μg/ml in PNP, no FX",32.5 s
same,effect on ability to generate thrombin from normal plasma,"[2]; 0.5 μg/mL of Rivaroxaban, activation by tissue factor and phospholipids",completely destroys the ability to generate thrombin
same,LT (lag time),[2]; [8],30.59 min
same,Peak,[2]; [8],6.83 nM
same,TTP (time to peak),[2]; [8],58.81 min
same,mVRI (mean velocity rate index),[2]; [8],0.24 nM/min
same,LT (lag time),[2]; [9],25.5 min
same,Peak,[2]; [9],7.42 nM
same,TTP (time to peak),[2]; [9],49.33 min
same,mVRI (mean velocity rate index),[2]; [9],0.31 nM/min
same,effect on thrombin generation induced by cephalin,[3]; Rivaroxaban at 0.35 μg/ml,completely inhibits thrombin generation
same,ETP,[3]; [10],0 nM
same,Peak,[3]; [10],0 nM
same,ttPeak,[3]; [10],0 min
same,effect on ability to generate thrombin from normal plasma,"[4]; 0.35 μg/mL of Rivaroxaban, activation with Cephalin",completely destroys the ability to generate thrombin
same,ETP (endogenous thrombin potential),[4]; [11],230.5 nM·min
same,LT (lag time),[4]; [11],48.17 min
same,Peak,[4]; [11],8.49 nM
same,ST (start time),[4]; [11],116 min
same,TTP (time to peak),[4]; [11],54 min
same,mVRI (mean velocity rate index),[4]; [11],1.46 nM/min
same,reduction of thrombin generation versus untreated plasma,[5]; 0.35 μg/ml of Rivaroxaban,approximately 75%
same,Lag time,[5]; [10],10.17 min
same,Peak,[5]; [10],10.69 nM
same,ttPeak,[5]; [10],20.5 min
same,ETP (endogenous thrombin potential),[6],772 nM·min
same,LT (lag time),[6],11.11 min
same,Peak,[6],31.32 nM
same,ST (start time),[6],67 min
same,TTP (time to peak),[6],25.33 min
same,mVRI (mean velocity rate index),[6],2.20 nM/min
same,aPTT with PTT-A,normal plasma pool [7],50.5 s

# Reference: US9700603B2, “Use of antidotes to coagulation inhibitors indicated in the prevention or treatment of thromboembolic pathologies” (LABORATOIRE FRANCAIS DU FRACTIONNEMENT ET DES …, priority 2013, dated 2017)
